Laboratory results published in patent US4472400A, “Triazoloquinazolones having antihistaminic and bronchospasmolytic activity” (Roussel Uclaf, priority 1981, dated 1984).
Where two headings read alike, the source gives them in different places.

Experiments:
[1] = test system: histamine induced resistance change; test: Measurement of Pulmonary Compliance and Resistance (RMG), histamine induced resistance change; format: in vivo, guinea pig (male Dunkin Hartley); conditions: Cavia porcellus, iv; anaesthetised guinea-pigs (Hypnorm/Valium), gallamine pre-treated; compound via right jugular vein; forced oscillation; read-out: RMG ED50 (effective dose required to reduce the histamine induced resistance change by 50%)
Method: (B) Measurement of Pulmonary Compliance and Resistance (RMG)
Male Dunkin Hartley guinea-pigs weighing between 400 and 650 g were anaesthetised with a combination of Hypnorm (1 ml/kg i.m.) and Valium (5 mg/kg i.p.). The trachea was cannulated and cannulae were inserted into the right jugular vein for the administration of compounds and left carotid artery for blood pressure measurement.
The animals were ventilated at a tidal volume of 6-8 ml and 10-12 cmH2 0 distension pressure was obtained. The respiratory rate was adjusted to 40-50/min. The animals were pre-treated with gallamine triethiodide (4 mg/kg i.v.) to maintain paralysis of respiratory muscles. Oxygen enrichment was applied to the inspiratory limb of the ventilator.
Respiratory resistance was measured by forced oscillation (Clay and Hughes 1980). Sinusodal wave forms of pressure were divided by flow at constant lung volumes to detect resistance changes. Sine wave production was achieved by a loudspeaker driven at 6-7 Hz through a pressure transducer, pneumotachograph and differential pressure transducer to detect pressure and flow contributions of the wave form. […] Drugs and analysis of activity were as described for the Konzett Rossler technique. Ref. Clay, T. P. and Hughes, J. M. B. (1980) J. Physiol. 308 427-437. The results given in Table V show the effective dose of each of the test compounds required to reduce the histamine induced resistance change by 50%.

[2] = test system: histamine-induced bronchoconstriction; test: Effects on histamine-induced bronchoconstriction in anaesthetised guinea pigs (KRG); format: in vivo, guinea pig (male Dunkin Hartley); conditions: Cavia porcellus, iv, read-out: KRG ED50 (effective dose required to reduce the histamine-induced constriction in lung air volume by 50%)
Method: (A) Effects on histamine-induced bronchoconstriction in anaesthetised guinea pigs (KRG)
Male Dunkin Hartley guinea-pigs weighing 350-650 grams were anaesthetised with urethane (25% w/v solution in distilled water at 7.0 ml/kg i.p). […] The animals were ventilated with a ventilatory pump, stroke volume of 8 ml and frequency of 52 to maintain a lung inflation pressure of 10 cm of H2 O. Blood pressure was measured via a cannula in the right carotid artery connected to a Statham blood pressure transducer and a Devices M2 recorder. The test compounds were administered via the cannulated left jugular vein and washed in with 0.1 ml of 0.9% w/w NaCl in distilled water. The test product was administered immediately before the histamine which was used as the agonist.
Respiratory changes were recorded via a differential transducer connected to an SE 905 transducer/converter which in turn was connected to a Devices M2 recorder.

[3] = anaesthetised guinea-pigs (urethane), test compound i.v. (jugular vein) immediately before histamine

| SMILES | ED50 [1] | ED50 [2, 3] | ED50 [2] |
| --- | --- | --- | --- |
| CCCn1c(=O)c2ccccc2n2c(CN3CCCCCC3)nnc12 [Example 5] | 0.3 mg/kg | 0.096 mg/kg |  |
| CCCCn1c(=O)c2ccccc2n2c(CN3CCCCC3)nnc12 [Example 21, 1-piperidinomethyl-4-n-butyl[1,2,4]triazolo[4,3-a]quinazolin-5(4H)-one] | 0.15 mg/kg | 0.11 mg/kg |  |
| CCN(CC)Cc1nnc2n(C)c(=O)c3ccccc3n12 [Example 26] | 1 mg/kg | 3.75 mg/kg |  |
| CCCn1c(=O)c2ccccc2n2c(CN(CC)CC)nnc12 [Example 2] | 0.5 mg/kg |  |  |
| CCCn1c(=O)c2ccccc2n2c(CN3CCCC3)nnc12 [Example 4] |  | 2 mg/kg |  |
| CCCn1c(=O)c2ccccc2n2c(CN3CC(C)CC(C)C3)nnc12 (centres unmarked) [Example 8] |  | 1 mg/kg |  |
| CCn1c(=O)c2ccccc2n2c(CN3CCCCC3)nnc12 [Example 29, 1-piperidinomethyl-4-ethyl[1,2,4]triazolo[4,3-a]quinazolin-5 (4H)-one] | 0.5 mg/kg | 0.35 mg/kg |  |
| CCCn1c(=O)c2ccccc2n2c(CN3CCCCC3)nnc12.Cl.O [Example 1, 1-Piperidinomethyl-4-n-propyl[1,2,4]triazolo[4,3-a]quinazolin-5(4H)-one hydrochloride, monohydrate] |  | 0.12 mg/kg |  |
| CCCCN(CCCC)Cc1nnc2n(CCC)c(=O)c3ccccc3n12 [Example 14] |  | 2.9 mg/kg |  |
| CCN(CC)Cc1nnc2n(CC)c(=O)c3ccccc3n12 [Example 30] | 1 mg/kg |  |  |
| CC(C)n1c(=O)c2ccccc2n2c(CN3CCCCC3)nnc12 [Example 19] |  | 0.185 mg/kg |  |
| CN1CCN(Cc2nnc3n(C)c(=O)c4ccccc4n23)CC1 [Example 27] | 0.8 mg/kg |  |  |
| Cn1c(=O)c2ccccc2n2c(CN3CCCCC3)nnc12 [Example 23] | 1 mg/kg | > 1 mg/kg |  |
| Cn1c(=O)c2ccccc2n2c(CN3CCOCC3)nnc12 [Example 24] | 1.8 mg/kg | 2.76 mg/kg |  |
| CCCNCc1nnc2n(CCC)c(=O)c3ccccc3n12 [Example 10] |  | 1.97 mg/kg |  |
| C=CCn1c(=O)c2ccccc2n2c(CN3CCCCC3)nnc12 [Example 33, 4-allyl-1-piperidinomethyl[1,2,4]triazolo[4,3-a]quinazolin-5(4H)-one] |  | 0.31 mg/kg |  |
| CC(C)n1c(=O)c2ccccc2n2c(CN3CCCCCC3)nnc12 [Example 20] |  | 0.8 mg/kg |  |
| CCCCn1c(=O)c2ccccc2n2c(CN3CCCCCC3)nnc12 [Example 22, 1-(2,3,4,5,6,7,-hexahydroazepino)methyl-4-n-butyl[1,2,4]triazolo[4,3-a] quinazolin-5(4H)-one] |  | 0.84 mg/kg |  |
| CCCCNCc1nnc2n(CCC)c(=O)c3ccccc3n12 [Example 12] |  | 1.3 mg/kg |  |
| CCOC(=O)N1CCN(Cc2nnc3n(C)c(=O)c4ccccc4n23)CC1 [Example 25] | 3.5 mg/kg | 5 mg/kg |  |
| CCCn1c(=O)c2ccccc2n2c(CN3CC4CCC(CC4)C3)nnc12 [Example 7] |  |  | 0.33 mg/kg |
| CCCn1c(=O)c2ccccc2n2c(CN3CCN(C)CC3)nnc12 [Example 3] |  | 5.28 mg/kg |  |
| CCCn1c(=O)c2ccccc2n2c(CN3CCN(c4ccccc4)CC3)nnc12 [Example 6] |  | 5 mg/kg |  |
| CCCn1c(=O)c2ccccc2n2c(CNC3CCCCC3)nnc12 [Example 11] |  | 1.8 mg/kg |  |
| O=c1c2ccccc2n2c(CN3CCCCC3)nnc2n1-c1ccccc1 [Example 31] |  | 0.58 mg/kg |  |
